Experimental data taken from PubChem BioAssay (NCI).
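Following 48 hours of exposure in 96-well plates, responses at five concentrations were used to interpolate endpoints linearly. Abbreviation: GI50, concentration required for 50% inhibition of growth. TGI: total growth inhibition.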

Assays:
Experiment in all cases: NCI anticancer screen, dose series, 48 h
SK-MEL-5 melanoma = tested on: SK-MEL-5 melanoma
DU-145 prostate = tested on: DU-145 prostate
OVCAR-8 ovarian = tested on: OVCAR-8 ovarian
UO-31 renal = tested on: UO-31 renal
OVCAR-3 ovarian = tested on: OVCAR-3 ovarian
PC-3 prostate = tested on: PC-3 prostate
HCT-116 colon = tested on: HCT-116 colon
SNB-19 CNS = tested on: SNB-19 CNS
UACC-62 melanoma = tested on: UACC-62 melanoma
SK-MEL-2 melanoma = tested on: SK-MEL-2 melanoma

SMILES | TGI (SK-MEL-5 melanoma) [µM] | TGI (DU-145 prostate) [µM] | TGI (OVCAR-8 ovarian) [µM] | TGI (UO-31 renal) [µM] | TGI (OVCAR-3 ovarian) [µM] | TGI (PC-3 prostate) [µM] | TGI (HCT-116 colon) [µM] | TGI (SNB-19 CNS) [µM] | TGI (UACC-62 melanoma) [µM] | TGI (SK-MEL-2 melanoma) [µM] | GI50 (SK-MEL-5 melanoma) [µM] | GI50 (DU-145 prostate) [µM] | GI50 (UACC-62 melanoma) [µM] | GI50 (OVCAR-8 ovarian) [µM] | GI50 (UO-31 renal) [µM] | GI50 (OVCAR-3 ovarian) [µM] | GI50 (SK-MEL-2 melanoma) [µM] | GI50 (HCT-116 colon) [µM] | GI50 (SNB-19 CNS) [µM]
O=[N+]([O-])c1ccc(/C=N/Nc2nc3ccccc3[nH]2)o1 | 14.3 | 27.1 | 38 | 47.5 | 28.1 | 49.2 | 36.7 | > 100 |  |  |  |  |  |  |  |  |  |  | 
O=C1c2cc(O)c(O)cc2O[C@H](c2ccc(O)c(O)c2)[C@H]1O | > 100 | > 100 | > 100 | > 100 | > 100 | > 100 | > 100 | > 100 | > 100 | > 100 |  |  |  |  |  |  |  |  | 
Oc1ccc(C(=C(Br)c2ccccc2)c2ccc(O)cc2)cc1 | 12.5 | 25.7 | 22.2 | 19.7 | 8.99 | 19.9 | 15.9 | 17.1 | 23.1 | 18.3 |  |  |  |  |  |  |  |  | 
CN1C(=O)CC(=O)N1/C(=C/c1ccccc1)c1ccccc1 | > 100 | > 100 | > 100 | 32 | > 100 | > 100 | > 100 | > 100 | > 100 | > 100 |  |  |  |  |  |  |  |  | 
O=C1c2cc3c(cc2-c2c1c1ccc(Cl)cc1c(=O)n2C[C@H](O)CO)OCO3 | 0.114 | 1.08 | 2.98 | 0.19 | 0.316 |  |  |  | 0.122 | 1.11 | 0.0322 | 0.0323 | 0.0122 | 0.0521 | 0.0348 | 0.0615 | 0.284 |  | 
COC(=O)c1cc2c(cc1Cl)Sc1nnc(Nc3ccccc3)n1S2(=O)=O | 21.2 | 3.87 | > 33.1 | 7.56 | 3.36 | 10 | 14.7 | 7.98 | 14.6 | 8.79 |  |  |  |  |  |  |  |  | 
O=C1c2ccccc2C(=O)c2[nH]cnc21 | 34.2 |  | > 100 | > 100 | 66.2 |  | > 100 | > 100 | 82.2 | > 100 |  |  |  |  |  |  |  |  | 
O=C(CSCC(=O)N/N=C/c1cccc(O)c1)N/N=C/c1cccc(O)c1 | > 100 | > 100 | > 100 | > 100 | > 100 | > 100 | > 100 | > 100 | > 100 | > 100 |  |  |  |  |  |  |  |  | 
Cc1ccc(S(=O)(=O)N(CC(O)COc2ccccc2)c2c(F)cccc2F)cc1 (centres undefined) | 27.2 | > 100 | 35.5 | 38.7 | 30.3 | 36.9 |  | > 100 | 36.3 | 32.5 |  |  |  |  |  |  |  |  | 
CC(SC(=S)N1CCOCC1)C(=O)Nc1nnc(-c2ccc(Cl)cc2)o1 (centres undefined) | > 100 | > 100 | > 100 | > 100 | > 100 | > 100 | 67.5 | > 100 | > 100 | > 100 |  |  |  |  |  |  |  |  | 
O=c1[nH]c2[nH]c(=S)[nH]c(=S)c2[nH]1 | > 100 |  | > 100 | > 100 |  | > 100 | > 100 | > 100 | > 100 | > 100 |  |  |  |  |  |  |  |  | 
COc1ccc2nc3c(c(N)c2c1)C1CCC3C1(C)C (centres undefined) | 25.7 | > 100 | > 100 | > 100 | > 100 | > 100 | > 100 | > 100 | 58 | 67.1 |  |  |  |  |  |  |  |  | 
COc1ccc(OC)c2sc(N3C(=O)/C(=C/c4cccc(Oc5ccccc5)c4)N=C3c3ccccc3)nc12 | > 100 | > 100 | > 100 | > 100 | > 100 | > 100 | > 100 | > 100 | > 100 | > 100 |  |  |  |  |  |  |  |  | 
O=C1C(Cl)N(c2ccccc2Cl)C1c1c[nH]c2ccccc12 (centres undefined) | > 100 |  | > 100 | > 100 | > 100 |  | > 100 | > 100 | > 100 | > 100 |  |  |  |  |  |  |  |  | 
Cc1ccc(S(=O)(=O)OC2CC(C(C)(C)C)CCC2c2ccccc2)cc1 (centres undefined) | > 100 | > 100 | > 100 | > 100 | > 100 | > 100 | > 100 | > 100 | > 100 | > 100 |  |  |  |  |  |  |  |  | 
CCOC(=O)c1c2c(n(-c3ccc(C)cc3)c1C)-c1ccccc1C(=O)C2(C(=O)OCC)C(=O)OCC | 50.4 | > 100 | 98.4 | > 100 | 69.2 | > 100 | > 72.9 | > 100 | > 91.8 | > 88.5 |  |  |  |  |  |  |  |  | 
C=C(C#N)C(=O)OCC(CC)CC.C=C(C#N)C(=O)OCC(CC)CC.CS(C)=O.CS(C)=O.Nc1c(N=Nc2ccc(-c3ccc(N=Nc4cc(S(=O)(=O)[O-])c5ccccc5c4N)cc3)cc2)cc(S(=O)(=O)[O-])c2ccccc12.[Pt+2] | > 77.4 |  | 42.3 | > 100 | > 58 |  | > 100 | > 100 | 97.4 | 50.4 | 34.1 |  | 36.8 | 19.2 | > 100 | 25.9 | 21.2 | > 65.2 | > 100
COc1ccc2nc3cc(Cl)ccc3c(NC(C)CCCN(CCCl)CCCl)c2c1 (centres undefined) | 7.89 |  | 4.32 | 11 | 6.87 |  | 1.5 | 7.15 | 2.41 | 4.54 |  |  |  |  |  |  |  |  | 
CSCCC(C(=O)O)N(C)C (centres undefined) | > 100 | > 100 | > 100 | > 100 | > 100 | > 100 | > 100 | > 100 | > 100 | > 100 |  |  |  |  |  |  |  |  | 
